Test results as given in patent US8664234B2, “Dihydrobenzoquinazolinone M1 receptor positive allosteric modulators” (Merck Sharp & Dohme Corp., priority 2010, dated 2014).

Biological target: T1, acetylcholine muscarinic M1 receptor (CHOnfat/hM1 cells) (Homo sapiens, UniProt P11229)
T1 construct: expressed in transfected cells; host or cells: CHOnfat cells (CHO; also called CHOK1/hM1)
T1 sequence (P11229 1-460): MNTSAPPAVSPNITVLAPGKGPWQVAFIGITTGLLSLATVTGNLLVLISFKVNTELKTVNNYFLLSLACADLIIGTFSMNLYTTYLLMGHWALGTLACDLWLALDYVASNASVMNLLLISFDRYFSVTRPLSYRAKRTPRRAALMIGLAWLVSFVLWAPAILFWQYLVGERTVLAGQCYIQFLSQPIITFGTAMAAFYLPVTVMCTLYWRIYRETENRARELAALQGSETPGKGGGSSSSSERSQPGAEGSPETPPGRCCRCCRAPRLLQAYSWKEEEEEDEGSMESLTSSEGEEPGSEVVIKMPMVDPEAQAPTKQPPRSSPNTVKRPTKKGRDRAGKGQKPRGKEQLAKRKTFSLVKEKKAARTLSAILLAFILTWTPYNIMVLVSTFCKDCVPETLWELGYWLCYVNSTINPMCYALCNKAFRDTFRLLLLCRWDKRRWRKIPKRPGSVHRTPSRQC
Test: FLIPR intracellular calcium assay for M1 positive allosteric modulator activity (acetylcholine EC20, 3 nM)
Assay type: cell-based
Conditions: 4 min preincubation, then EC20 acetylcholine (3 nM final), FLIPR Ca2+ readout, read-out: IP Value (inflection point)
Experimental: The assay studies the effect of one or several concentrations of test compounds on basal or acetylcholine-stimulated. Ca^2+ levels using FLJPR.
Compounds are prepared and subjected to a preincubation period of 4 min. Thereafter, a single EC20 concentration of acetylcholine is added to each well (3 nM final). The intracellular Ca^2+ level of each sample is measured and compared to an acetylcholine control to determine any modulatory activity.
Cells: CHOnfat/hM1, hM2, hM3 or hM4 cells are plated 24 hr before the assay at a density of 18,000 cells/well (100 μL) in a 384 well plate. CHOnfat/hM1 and CHOnfat/hM3 Growth Medium: 90% DMEM (Hi Glucose); 10% HI FBS; 2 mM L-glutamine; 0.1 mM NEAA; Pen-Strep; and 1 mg/ml Geneticin, are added. For M2Gqi5CHOnfat and M4Gqi5CHOnfat cells, an additional 600 ug/ml hygromycin is added.
Equipment: 384 well plate, 120 μL addition plate; 96-well Whatman 2 ml Uniplate Incubator, 37° C., 5% CO2; Skatron EMBLA-384 Plate Washer; Multimek Pipetting System; Genesis Freedom 200 System; Mosquito System; Temo Nanoliter Pipetting System; and FLIPR^384 Fluorometric Imaging Plate Reader System are used.
Buffers. Assay Buffer: Hanks Balanced Salt Solution, with 20 mM Hepes, 2.5 mM Probenecid (Sigma P-8761) first dissolved in 1 N NaOH, 1% Bovine Serum Albumin (Sigma A-9647). Dye Loading Buffer: Assay Buffer plus 1% Fetal Bovine Serum and Fluo-4AM/Pluronic Acid Mixture. 2 mM Fluo-4AM ester stock in DMSO (Molecular Probes F-14202) Concentration of 2 μM in buffer for a final concentration of 1 μM in Assay. 20% Pluronic Acid Solution stock, with concentration of 0.04% in Buffer, 0.02% in Assay.
65 μL of 2 mM Fluo-4AM are mixed with 130 μL of 20% Pluronic Acid. The resulting solution and 650 μL FBS is added to the assay buffer for a total volume of 65 mL. Positive Controls: 4-Br-A23187: 10 mM in DMSO; final concentration 10 μM. Acetylcholine: 10 mM in water, working stock at both 20 μM and 30 μM in assay buffer, final concentration of 10 μM. This is used to check the maximum stimulation of the CHOK1/hM1 cells, 20 μM (2×) acetylcholine is added in the preincubation part of the assay, and the 30 μM (3×) stock is added in the second part. (EC20) Acetylcholine: 10 mM in water, working stock of 9 nM (3×), and final concentration in assay is 3 nM. This is used after the preincubation with test compounds. Addition of the EC20 Acetylcholine to each well with a test compound will ascertain any modulator activity. 24 wells contain 3 nM Acetylcholine alone as a control.
Determining Activity of Putative Compounds:
Screening Plate Compounds are titrated in 96-well plates (columns 2-11), 100% DMSO, started at a concentration of 15 mM (150× stock concentration), and 3-fold serial dilutions using Genesis Freedom200 System. Four 96-well plates are combined into a 384-well plate using Mosquito Nanoliter Pipetting System by transferring 1 μl of serial diluted compounds to each well, and 1 mM acetylcholine (100× stock concentration) were added as a control. Using Temo, 49 μl assay buffer is added to each well of the 384-well plate right before assay.
In a 96-well Whatman 2 ml Uniplate, 9 nM Acetylcholine (3×) is pipetted into wells corresponding to the screening compounds, and into control wells. The 30 μM acetylcholine control (3×) is added into control wells, and the 3× agonist plate is transferred into a 384 well plate.
Cells are washed three times with 100 μL of buffer, leaving 30 μL of buffer in each well. Using Multimek, 30 μL of Dye Loading Buffer is added into each well and incubated at 37° C., 5% CO2 for up to one hr.
After 60 min, the cells are washed three times with 100 μL of buffer, leaving 30 μL of buffer in each well. The cell plate, screening plate, and agonist addition plates are placed on the platform in the FLIPR and the door closed. A signal test to check background fluorescence and basal fluorescence signal is performed. Laser intensity is adjusted if necessary. […]

Row | Compound | EC50
1 | Cn1ccc2c(Cc3cc4c(c5ccccc35)NCN([C@H]3CCOC[C@@H]3O)C4=O)cccc21 [Example 1, 1,5-Anhydro-2,3-dideoxy-3-{6-[(1-methyl-1H-indol-4-yl)methyl]-4-oxo-1,4-dihydrobenzo[h]quinazolin-3 (2H)-yl}-L-threo-pentitol] | 15 nM
2 | CN1CN([C@H]2CCOC[C@@H]2O)C(=O)c2cc(Cc3ccc(Cl)nc3)c3ccccc3c21 [Example 2, 1,5-Anhydro-3-{6-[(6-chloropyridin-3-yl)methyl]-1-methyl-4-oxo-1,4-dihydrobenzo[h]quinazolin-3(2H)-yl}-2,3-dideoxy-L-threo-pentitol] | 6.3 nM
3 | CSc1ccc(Cc2cc3c(c4ccccc24)NCN([C@H]2CCOC[C@@H]2O)C3=O)cn1 [Example 3, 1,5-Anhydro-2,3-dideoxy-3-[6-{[6-(methylsulfanyl)pyridin-3-yl]methyl}-4-oxo-1,4-dihydrobenzo[h]quinazolin-3(2H)-yl]-L-threo-pentitol] | 11.5 nM
4 | Cc1ccc(Cc2cc3c(c4ccccc24)N(C)CN([C@H]2CCCC[C@@H]2O)C3=O)cn1 [Example 4, 3-[(1S,2S)-2-Hydroxycyclohexyl]-1-methyl-6-[(6-methylpyridin-3-yl)methyl]-2,3-dihydrobenzo[h]quinazolin-4(1H)-one] | 4 nM

Next, values leading:

Row | EC50 | Compound
5 | 1170 nM | CCCN1CN([C@H]2CCCC[C@@H]2O)C(=O)c2cc(Cc3ccc(C)nc3)c3ccccc3c21 [Example 5, 3-[(1S,2S)-2-Hydroxycyclohexyl]-6-[(6-methylpyridin-3-yl)methyl]-1-propyl-2,3-dihydrobenzo[h]quinazolin-4(1H)-one]
6 | 2.7 nM | CN1CN([C@H]2CCOC[C@@H]2O)C(=O)c2cc(Cc3ccnc(CF)c3)c3ccccc3c21 [Example 6, 1,5-Anhydro-2,3-dideoxy-3-[6-{[2-(fluoromethyl)pyridin-4-yl]methyl}-1-methyl-4-oxo-1,4-dihydrobenzo[h]quinazolin-3 (2H)-yl]-L-threo-pentitol]
7 | 2.6 nM | CN1CN([C@H]2CCOC[C@@H]2O)C(=O)c2cc(Cc3ccnc(C(F)F)c3)c3ccccc3c21 [Example 7, 1,5-anhydro-2,3-dideoxy-3-[6-{[2-(difluoromethyl)pyridin-4-yl]methyl}-1-methyl-4-oxo-1,4-dihydrobenzo[h]quinazolin-3(2H)-yl]-L-threo-pentitol]
